Laboratory results reported in patent publication US4452813A, “Sulfonate derivatives, process for preparing same and antilipemic compositions containing the derivative” (Taiho Pharmaceutical Company Limited, priority 1981, dated 1984).
Read-outs that look alike come from different tables or passages of the source.

How the values were obtained:
[1] = background literature, cited from earlier work
Chymotripsin = Chymotripsin (Bos taurus, UniProt P00766); assay: Chymotripsin inhibiting activity (hydrolysis of ATEE); format: biochemical; conditions: 0.5 h; 1 × 10^-4 mol; 20 min preincubation, ATEE 30 min, 37° C., pH 8.0
Experimental: 2. Chymotripsin Inhibiting Activity
Chymotripsin (0.1 unit) serving as an enzyme solution is added to a specified quantity of buffer solution (pH 8.0) containing 0.1 mole of trishydrochloric acid. To the mixture is further added a 50% ethanol solution of the compound of the invention. The mixture is reacted at 37° C. for 20 minutes.
On completion of the reaction, 10 micromoles of […] (ATEE) serving as a substrate is added to the mixture, and the resulting mixture is reacted at 37° C. for 30 minutes.
After the completion of the reaction, the amount of remaining ATEE is determined by the same hydroxamic acid method as above. The percent chymotripsin inhibition is given by [formula] wherein A is the amount of hydrolzed esters in the reaction system not containing the compound of the invention, and B is the amount of hydrolyzed esters in the reaction system containing the present compound.

[2] = target: esterase (purified microsome fraction of the liver of a rat); assay: Esterase inhibiting activity (hydrolysis of methyl butyrate); format: biochemical; conditions: methyl butyrate substrate, pH 8.0, 37° C., 60 minutes
Experimental: 1. Esterase Inhibiting Activity
A 10 micromole quantity of methyl butyrate in a 50% ethanol solution is added as a substrate to a specified amount of buffer solution (pH 8.0) containing 0.1 mole of trishydrochloric acid. To the mixture is further added a 50% ethanol solution of the compound of the invention, immediately followed by addition of an esterase solution prepared from a purified microsome fraction of the liver of a rat (adjusted to hydrolyze 9 micromoles of methyl butyrate at 37° C. in one hour). The mixture is reacted at 37° C. for 60 minutes.
After the reaction, alkaline hydroxylamine is added to the mixture to form a hydroxamic acid derivative of methyl butyrate, and a ferric salt is added to the derivative. The resulting red color is colorimetrically determined (at a wavelength of 540 nm) to determine the amount of remaining methyl butyrate. The esterase inhibiting ratios of the present compound at least at three concentrations are plotted as ordinate, and the logarithms of the concentrations as abscissa to obtain a line, which gives the 50% inhibition concentration (IC50).

[3] = Acute toxicity, oral, one week; conditions: rat, in vivo, 5% gum arabic suspension
Description: Six-week-old male Wister rats weighing 180 to 200 g are used, 5 rats in each group. The present compound is suspended in a 5% aqueous solution of gum arabic, and the suspension is orally given to the rats. For one week after the start of the test, the rats are checked evey day for general toxicity symptoms, body weight and death to determine the LD50 value.

[4] = tested on: triglycerides content in the plasma; assay: Antilipemic effect: inhibition of olive oil-induced hyperlipidemia, plasma triglycerides; format: in vivo, male Wister rats; conditions: Rattus norvegicus, 100 mg compound in 5 ml olive oil, 5 ml/kg oral, 2 hours, read-out: Antilipemic effect IGI (%) (percent hyperlipidemia inhibition, triglycerides)
Experimental: Seven-week-old male Wister rats weighing 200 to 220 g are used, 5 rats in each group.
The compound of the invention (100 mg) is dissolved in 5 ml of olive oil. The olive oil containing the compound is orally given to the rat with a probe at a dose of 5 ml/kg. Two hours thereafter, 6 ml of whole blood is withdrawn from the descending aorta of the rat under ether anesthesia with a syringe containing heparin. The blood is centrifuged at 5° C. and 3000 r.p.m. to obtain the plasma. The plasma collected is used for determining the triglycerides content, using a triglycerides measuring kit (trade mark "Triglycerides-B Test Wako," product of Wako Junyaku Co., Ltd., Japan). Olive oil containing no compound is similarly given to a control group, while no treatment is conducted for a normal group. The triglycerides content in the plasma is also determined for these groups in the same manner as is the case with the test groups.
The percent hyperlipidemia inhibition achieved by the present compound is given by [formula] in which A is the triglycerides content of the control group, B is the triglycerides content of the normal group, and C is the triglycerides content of the group to which the present compound is given.

SMILES | reported side effects (in words) [1] | reported side effects (in words) ([1]; listed as clofibrate) | inhibition at 100 µM (Chymotripsin) [%] | IC50 [2] [µM] | LD50 at 168 h [3] [mg/kg] | inhibition in vivo at 100 mg/kg [4] [%]
CCOC(=O)C(C)(C)Oc1ccc(Cl)cc1 [Clofibrate] | carcinogenic activity | increased sterol discharge | – | – | – | –
Cc1ccc(S(=O)(=O)OCC(=O)[C@H]2CC[C@H](C(C)(C)C)CC2)cc1 [Compound 37] | – | – | 22 | 5.4 | > 3000 | 66
O=C(O)c1cccnc1 [Nicotinic acid] | pruritus and cutaneous flushing due to vasodilatation, gastrointestinal disorders, abnormalities in liver function and glucose intolerance | – | – | – | – | –
